In US4820695A, “C-20-dihydro-deoxy-(cyclic amino)-derivatives of macrolide antibiotics” (priority 1987, dated 1989):
≈ marks a conversion by molar mass, not a printed value. Where “and” joins values, the source holds several entries; their conditions need not be identical. Equal values may be shown once. Read-outs that look alike come from different tables or passages of the source.

Assays:
Pasteurella multocida [1] = test: Pasteurella infection in one-day-old chicks, subcutaneous administration (Table XII); format: in vivo; settings: Administered subcutaneously, 30 mg/kg × 2, 1 and 4 hours post-challenge
Method in brief: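 One-day-old chicks were challenged subcutaneously with 0.1 ml of a 10^-4 dilution of a 20-h tryptose broth culture of avian P. multocida. Compounds were then given by subcutaneous injection at 30 mg/kg, at 1 and 4 hours post-challenge.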

[2] = tested on: Haemophilus influenzae C.L.; test: MIC, standard agar-dilution assay (Table IX); format: cell-based; settings: Ampicillin-sensitive strain, read-out: MIC
[3] = tested on: Pasteurella multocida 60A; test: MIC, broth-dilution microtiter test (Table X); format: cell-based; settings: Avian isolate, read-out: MIC
Excerpt: (§1) The MIC's in Table X were obtained using conventional broth-dilution microtiter tests.

[4] = tested on: Mycoplasma hyopneumoniae S5972; test: MIC, broth-dilution microtiter test (Table X); format: cell-based; settings: Mesomycoplasma hyopneumoniae, read-out: MIC
Excerpt: as §1

[5] = tested on: Pasteurella multocida 17E; test: MIC, broth-dilution microtiter test (Table X); format: cell-based; settings: Bovine isolate, read-out: MIC
Excerpt: as §1

[6] = tested on: Pasteurella hemolytica 22C; test: MIC, broth-dilution microtiter test (Table X); format: cell-based; settings: read-out: MIC
Excerpt: as §1

[7] = tested on: Mycoplasma gallisepticum 29C; test: MIC, broth-dilution microtiter test (Table X); format: cell-based; settings: Mycoplasmoides gallisepticum, read-out: MIC
Excerpt: as §1

Streptococcus sp. 19F = test: MIC, broth-dilution microtiter test (Table X); format: cell-based; settings: read-out: MIC
Excerpt: as §1

Mycoplasma synoviae 40A = test: MIC, broth-dilution microtiter test (Table X); format: cell-based; settings: Mycoplasmopsis synoviae, read-out: MIC
Excerpt: as §1

[8] = tested on: Staphylococcus aureus 19C; test: MIC, broth-dilution microtiter test (Table X); format: cell-based
Excerpt: as §1

Mycoplasma hyorhinis 29E = test: MIC, broth-dilution microtiter test (Table X); format: cell-based; settings: read-out: MIC
Excerpt: as §1

[9] = tested on: Streptococcus pyogenes C203; test: ED50 in mice experimentally infected with S. pyogenes C203 (Table XI); format: in vivo; settings: Streptococcus pyogenes, doses given 1 and 4 hours postinfection, read-out: ED50
Method in brief: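 Mice infected with S. pyogenes C203 received two doses of compound, 1 and 4 h post-infection. ED50 is the dose in mg/kg (per dose, ×2) protecting 50% of animals.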

[10] = tested on: Staphylococcus epidermidis EPI1; test: MIC, standard agar-dilution assay (Table IX); format: cell-based; settings: Staphylococcus epidermidis EPI1; agar-dilution; read-out: MIC
[11] = tested on: Staphylococcus aureus S13E; test: MIC, standard agar-dilution assay (Table IX); format: cell-based; settings: Staphylococcus aureus, S13E
Klebsiella X26 = test: MIC, standard agar-dilution assay (Table IX); format: cell-based; settings: read-out: MIC
[12] = tested on: Streptococcus pyogenes C203; test: MIC, standard agar-dilution assay (Table IX); format: cell-based; settings: read-out: MIC
Escherichia coli TEM = test: MIC, standard agar-dilution assay (Table IX); format: cell-based; settings: read-out: MIC
[13] = tested on: Streptococcus Group D X66; test: MIC, standard agar-dilution assay (Table IX); format: cell-based; settings: read-out: MIC
Staphyloccus aureus X1.1 = test: MIC, standard agar-dilution assay (Table IX); format: cell-based, Staphylococcus aureus; settings: Staphylococcus aureus, read-out: MIC
[14] = tested on: Staphylococcus aureus X400; test: MIC, standard agar-dilution assay (Table IX); format: cell-based; settings: Staphylococcus aureus X400, Methicillin-resistant strain, read-out: MIC
Pasteurella multocida [15] = test: Pasteurella infection in one-day-old chicks, medicated drinking water (Table XIII); format: in vivo; settings: Administered in the available drinking water at 2 g/gal
Method in brief: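 One-day-old chicks were challenged subcutaneously with 0.1 ml of a 10^-4 dilution of a 20-hour tryptose broth culture of avian P. multocida. Compound was given in drinking water at 2 g/gal, available from 4 to 20 hours before challenge and throughout the 3-day test period.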

[16] = tested on: Streptococcus Group D 2041; test: MIC, standard agar-dilution assay (Table IX); format: cell-based; settings: GROUPD2041, read-out: MIC
[17] = tested on: Staphylococcus epidermidis 222; test: MIC, standard agar-dilution assay (Table IX); format: cell-based; settings: read-out: MIC
[18] = tested on: Haemophilus influenzae 76; test: MIC, standard agar-dilution assay (Table IX); format: cell-based; settings: Haemophilus influenzae 76, Ampicillin-resistant strain, read-out: MIC
Escherichia coli EC14 = test: MIC, standard agar-dilution assay (Table IX); format: cell-based; settings: read-out: MIC
[19] = tested on: Staphylococcus aureus V41; test: MIC, standard agar-dilution assay (Table IX); format: cell-based; settings: Staphylococcus aureus V41, Penicillin-resistant strain, read-out: MIC
[20] = tested on: Streptococcus pneumoniae Park I; test: MIC, standard agar-dilution assay (Table IX); format: cell-based; settings: Streptococcus pneumoniae Park I; agar-dilution; read-out: MIC
[21] = Blood and tissue levels after a single injection; format: in vivo
Excerpt: A special advantage of this invention is that certain of the compounds are effective when administered as a single injection.

Escherichia coli N10 = test: MIC, standard agar-dilution assay (Table IX); format: cell-based; settings: read-out: MIC
Staphylococcus aureus = test: MIC, broth-dilution microtiter test (Table X); format: cell-based; settings: read-out: MIC
Excerpt: as §1

Group D strain 9960 = test: MIC, standard agar-dilution assay (Table IX); format: cell-based, Streptococcus Group D; settings: tested using predecessor Group D strain 9960
[22] = Titratable groups in 66% aqueous DMF (Tables XIV-XVI); format: physicochemical
Excerpt: ^c Run in 66% aqueous DMF
^d Run in 66% aqueous DMF

Row | Compound | Number of Deaths/Number Treated (Pasteurella multocida [1]) | MIC [2] [µg/mL] | MIC [3] [µg/mL] | MIC [5] [µg/mL] | MIC [6] [µg/mL] | MIC [7] [µg/mL] | MIC (Streptococcus sp. 19F) [µg/mL] | MIC (Mycoplasma synoviae 40A) [µg/mL] | MIC (Mycoplasma hyorhinis 29E) [µg/mL] | ED50 ([9]; C203, Oral) [mg/kg] | ED50 ([9]; C203, sc, Subcutaneous) [mg/kg] | MIC [10] [µg/mL] | MIC [11] [µg/mL] | MIC (Klebsiella X26) [µg/mL] | MIC [12] [µg/mL] | MIC (Escherichia coli TEM) [µg/mL] | MIC [13] [µg/mL] | MIC (Staphyloccus aureus X1.1) [µg/mL] | MIC [14] [µg/mL] | MIC [17] [µg/mL] | also measured
1 | CCC1OC(=O)CC(O)C(C)C(OC2OC(C)C(O)C(N(C)C)C2O)C(CCN2C[C@H](C)C[C@H](C)C2)CC(C)C(=O)C=CC(C)=CC1COC1OC(C)C(O)C(OC)C1OC (stereo partly drawn) [Compound D34, 20-DH-DO-20-(cis-3,5-dimethylpiperidine-1-yl)desmycosin] | 3/10 | 16 (≈ 18.4 µM) | 12.5 (≈ 14.4 µM) | 12.5 (≈ 14.4 µM) | 6.25 (≈ 7.19 µM) | 0.195 (≈ 0.224 µM) | 3.12 (≈ 3.59 µM) | 0.78 (≈ 0.897 µM) | 12.5 (≈ 14.4 µM) | 7.98 | < 0.625 | 0.5 (≈ 0.575 µM) | 0.5 (≈ 0.575 µM) | 64 (≈ 73.6 µM) | 0.5 (≈ 0.575 µM) | 32 (≈ 36.8 µM) | 4 (≈ 4.6 µM) | 1 (≈ 1.15 µM) | 1 (≈ 1.15 µM) | 0.25 (≈ 0.288 µM) | MIC [4]: 0.78 µg/mL (≈ 0.897 µM); MIC [8]: 3.12 µg/mL (≈ 3.59 µM); Number of Deaths/Number Treated (Pasteurella multocida [15]): 3/10 and 0/10 and 1/10 and 6/10; MIC [16]: 8 µg/mL (≈ 9.2 µM); MIC [18]: 4 µg/mL (≈ 4.6 µM); MIC (Escherichia coli EC14): 128 µg/mL (≈ 147 µM); MIC [19]: 1 µg/mL (≈ 1.15 µM); MIC [20]: 2 µg/mL (≈ 2.3 µM); measurable blood and tissue levels of the drug [21]: prolonged measurable blood and tissue levels of the drug for as long as seven days; MIC (Escherichia coli N10): 128 µg/mL (≈ 147 µM)
2 | CCC1OC(=O)CC(O)C(C)C(OC2OC(C)C(O)C(N(C)C)C2O)C(CCN2CCC(c3ccccc3)CC2)CC(C)C(=O)C=CC(C)=CC1COC1OC(C)C(O)C(OC)C1OC (stereo not shown) [Compound D4, 20-DH-DO-20-(4-Phenylpiperidin-1-yl)desmycosin] | 9/10 | 8 (≈ 8.72 µM) | 6.25 (≈ 6.81 µM) | 6.25 (≈ 6.81 µM) | 6.25 (≈ 6.81 µM) | 0.39 (≈ 0.425 µM) | 0.09 (≈ 0.0981 µM) | < 0.05 | 50 (≈ 54.5 µM) | 19 | 6 | 0.5 (≈ 0.545 µM) | 0.5 (≈ 0.545 µM) | 32 (≈ 34.9 µM) | 0.25 (≈ 0.273 µM) | 32 (≈ 34.9 µM) | 1 (≈ 1.09 µM) | 0.5 (≈ 0.545 µM) | 0.5 (≈ 0.545 µM) | 0.25 (≈ 0.273 µM) | MIC [4]: 0.78 µg/mL (≈ 0.85 µM); MIC (Staphylococcus aureus): 0.39 µg/mL (≈ 0.425 µM); MIC (Group D strain 9960): 2 µg/mL (≈ 2.18 µM); Number of Deaths/Number Treated (Pasteurella multocida [15]): 6/10; MIC [18]: 8 µg/mL (≈ 8.72 µM); MIC (Escherichia coli EC14): 64 µg/mL (≈ 69.8 µM); MIC [19]: 0.5 µg/mL (≈ 0.545 µM); MIC [20]: 0.25 µg/mL (≈ 0.273 µM); MIC (Escherichia coli N10): 64 µg/mL (≈ 69.8 µM)
3 | CCC1OC(=O)CC(O)C(C)C(OC2OC(C)C(O)C(N(C)C)C2O)C(CCN2CCCCCCC2)CC(C)C(=O)C=CC(C)=CC1COC1OC(C)C(O)C(O)C1OC (stereo not shown) [Compound L5, 20-DH-DO-20-(octahydroazocin-1-yl)lactenocin] | 0/10 | 32 (≈ 37.4 µM) | 12.5 (≈ 14.6 µM) | 6.25 (≈ 7.31 µM) | 12.5 (≈ 14.6 µM) | 6.25 (≈ 7.31 µM) | 0.78 (≈ 0.912 µM) | 3.12 (≈ 3.65 µM) | 50 (≈ 58.5 µM) | 100 | 1.8 | 1 (≈ 1.17 µM) | 1 (≈ 1.17 µM) | 16 (≈ 18.7 µM) | 0.5 (≈ 0.585 µM) | 16 (≈ 18.7 µM) | 16 (≈ 18.7 µM) | 1 (≈ 1.17 µM) | 2 (≈ 2.34 µM) | 0.5 (≈ 0.585 µM) | MIC (Staphylococcus aureus): 1.56 µg/mL (≈ 1.82 µM); MIC (Group D strain 9960): 16 µg/mL (≈ 18.7 µM); pKa ([22]; Titratable groups): 9.3; pKa ([22]; Titratable groups (first value)): 7.8; MIC [18]: 6 µg/mL (≈ 7.02 µM); MIC (Escherichia coli EC14): > 128 µg/mL; MIC [19]: 1 µg/mL (≈ 1.17 µM); MIC [20]: 0.5 µg/mL (≈ 0.585 µM); MIC (Escherichia coli N10): > 128 µg/mL
